Active and inactive are the calls of the source.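 Rule for the calls: active = compounds whose EC50 for boosting single-cell stem cell survival is at or below a set limit; inactive = the rest.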
Test system: human iPSC single-cell survival, ATP luminescence
Assay: enhancers of single-cell hiPSC survival, dose response, luminescence (AID 623861)

SMILES: COc1ccc2c(c1)c(=O)c(C(=O)c1ccc(Cl)cc1)cn2CC(=O)Nc1ccc(F)cc1
- EC50: 15.6 µM

SMILES: CCN1C/C(=C/c2cccc([N+](=O)[O-])c2)C(=O)/C(=C/c2cccc([N+](=O)[O-])c2)C1
- EC50: 9.01 µM

SMILES: COC(=O)C1=C(C)N(C)C(C)=C(C(=O)OC)C1c1cccc(Br)c1
- EC50: > 80 µM (inactive)

SMILES: O=C(Nc1ccncc1)c1c(F)c(F)c(F)c(F)c1F
- EC50: 5.93 µM

SMILES: CCS(=O)(=O)c1ncc(Cl)c(C(=O)Nc2ccc(S(=O)(=O)N3CCCC(C)C3)cc2)n1 (configuration not stated)
- EC50: > 80 µM (inactive)

SMILES: CCOC(=O)C(=O)/C(=C\N(C)C)c1onc(-c2c(F)cccc2Cl)c1C(=O)OC
- EC50: > 80 µM (inactive)

SMILES: CN(Cc1ccccc1)C(=O)CN1CCN(S(=O)(=O)c2ccccc2F)CC1
- EC50: > 80 µM (inactive)

SMILES: CCCOC(=O)C1NC(=O)N2C(C(=O)OCCC)C(C)(C)S[C@H]12 (some centres not stated)
- EC50: > 80 µM (inactive)

SMILES: Cc1ccsc1C(=O)OCC(=O)Nc1sccc1C(N)=O
- EC50: > 80 µM (inactive)

SMILES: CC(C)CCNC(=O)c1onc(CSc2ccc(F)cc2)c1C(=O)NCCC(C)C
- EC50: > 80 µM (inactive)

SMILES: Cc1ccc(-n2nc(C)c3c(C)cc(=O)[nH]c32)cc1
- EC50: > 80 µM (inactive)

SMILES: COc1ccc(N2C(=O)CC(Sc3nccc(C)n3)C2=O)c(OC)c1 (configuration not stated)
- EC50: > 80 µM (inactive)

SMILES: Cn1c(=O)cc(OCCCC(=O)Nc2cccc(Cl)c2)c2ccccc21
- EC50: > 80 µM (inactive)

SMILES: O=C(Nc1cccnc1Cl)c1cccnc1Cl
- EC50: > 80 µM (inactive)

SMILES: NC(=O)c1ccc(Nc2nc(C(N)c3ccccc3Cl)cs2)cc1 (configuration not stated)
- EC50: 39.7 µM (inactive)

SMILES: CC1(C)Cc2c(C#N)c(SCC(=O)c3ccccc3)nc(N3CCOCC3)c2CS1
- EC50: 13.4 µM

SMILES: CCCCn1c(=O)[nH]c(=O)c2c1nc(Cn1ncc(Cl)c(Cl)c1=O)n2CCC
- EC50: 5.62 µM

SMILES: C=C1C(C)C2C(Cc3ccccc3)NC(=O)C23C(OC(C)=O)C=CC(C)(O)CC(C)CC=CC3C1O (configuration not stated)
- EC50: 0.448 µM

SMILES: CCCn1c(SCc2ccccc2)nc2c1c(=O)[nH]c(=O)n2C
- EC50: > 80 µM (inactive)

SMILES: Cc1nnc2n(C3CCCCC3)c(=O)c3c4c(sc3n12)COC(C)(C)C4
- EC50: 38.5 µM (inactive)

SMILES: COc1ccc(OC)c(NC(=O)C(CC(C)C)NC(=O)C2CCCCC2)c1 (configuration not stated)
- EC50: > 80 µM (inactive)

SMILES: O=C(Nc1ccncc1)c1ccccc1[N+](=O)[O-]
- EC50: 52.6 µM (inactive)

SMILES: C=C1[C@@H](C)[C@H]2[C@H](Cc3ccccc3)NC(=O)[C@]23OC(=O)/C=C/[C@H](O)CCC[C@@H](C)C/C=C/[C@H]3[C@@H]1O
- EC50: 21.7 µM (inactive)

SMILES: C[C@@H]1CN([C@@H](C)CO)C(=O)c2cc(Br)cnc2O[C@H]1CN(C)C(=O)C1CC1
- EC50: > 80 µM (inactive)

SMILES: Cc1ccc2c(COC(=O)C3=COCCO3)cc(=O)oc2c1
- EC50: > 80 µM (inactive)

SMILES: Cc1ccc(CN2CCN(Cc3cn(C)nc3C)CC2CCO)o1 (configuration not stated)
- EC50: > 80 µM (inactive)

SMILES: O=C(NCCCN1CCCCCC1)c1ccc(CS(=O)(=O)Cc2ccccc2F)o1
- EC50: > 80 µM (inactive)

SMILES: CCOC1=C2[C@H](c3ccc(C)cc3)N(S(=O)(=O)c3ccc(C)cc3)C[C@H]2n2c(=O)n(-c3ccccc3)c(=O)n2C1
- EC50: > 80 µM (inactive)

SMILES: CC(=O)c1ccccc1NC(=O)COC(=O)CCCN1C(=O)c2cccc3cccc(c23)C1=O
- EC50: > 80 µM (inactive)

SMILES: NC(=O)CC(NC(=O)c1ccccc1)C(=O)O (configuration not stated)
- EC50: > 80 µM (inactive)

SMILES: O=C(O)c1ccccc1C(=O)NCC(O)COCC1CC=CCC1 (configuration not stated)
- EC50: > 80 µM (inactive)

SMILES: CCCSc1nc(N2CCOCC2)c2c(c1C#N)CC(C)(C)SC2
- EC50: 25.6 µM (inactive)

SMILES: CC(OC(=O)c1cccc(S(=O)(=O)N2CCN(C)CC2)c1)C(=O)Nc1ccc(C(N)=O)cc1 (configuration not stated)
- EC50: 30.6 µM (inactive)

SMILES: O=C(NC1CCCCC1)N(Cc1nc2ccccc2c(=O)[nH]1)C1CCCCC1
- EC50: > 80 µM (inactive)

SMILES: Cn1c(Cl)c(/C=N/OC(=O)c2ccc(Cl)cc2)c2ccccc21
- EC50: > 80 µM (inactive)

SMILES: c1ccc(CN2CCN(c3nc(NCc4ccco4)c4ccccc4n3)CC2)cc1
- EC50: 1.05 µM

SMILES: O=C(COc1ccccc1)Nc1nc(-c2ccncc2)cs1
- EC50: 15.9 µM

SMILES: CCCOC(=O)Oc1ccc2c(=O)c(Oc3cc(C)cc(C)c3)coc2c1
- EC50: > 80 µM (inactive)

SMILES: COc1cc(CC(CC(=O)O)CC(C)OCc2ccccc2)cc(OC)c1 (configuration not stated)
- EC50: > 80 µM (inactive)

SMILES: CCN1C/C(=C\c2cccc([N+](=O)[O-])c2)C(=O)/C(=C/c2cccc([N+](=O)[O-])c2)C1
- EC50: 20 µM

SMILES: Cc1cc(Cl)n2nc(C)c(-c3ccc(Cl)cc3)c2n1
- EC50: > 80 µM (inactive)

SMILES: O=C1CCC2(C(=O)O)Sc3ccccc3N12 (configuration not stated)
- EC50: > 80 µM (inactive)

SMILES: CS(=O)(=O)N(Cc1cc2ccccc2[nH]c1=O)C1CCCCC1
- EC50: > 80 µM (inactive)

SMILES: COc1ccc(C2=CC(=O)C[C@H](c3ccc(OC)c(OC)c3)C2)cn1
- EC50: > 80 µM (inactive)

SMILES: COC(=O)[C@]1(Cc2ccccc2)N[C@H](CN(C)C(=O)Nc2ccccc2)[C@@H]2C(=O)N(C)C(=O)[C@@H]21
- EC50: > 80 µM (inactive)

SMILES: Cc1cc(C)c2nc(N3CCN(C)CC3)c(C#N)cc2c1
- EC50: > 80 µM (inactive)

SMILES: COc1ccc2c(c1)c1ccc3c(c1n2C)C(=O)C=CC3=O
- EC50: > 80 µM (inactive)

— PubChem BioAssay AID623861 (Sanford-Burnham Center for Chemical Genomics, 2012)
